Values of other authors in patent US11504411B1, “Herbal dietary supplement supporting healthy immune function” (Progressing Bodies, Inc., priority 2021, dated 2022).

What was measured:
herpes simplex virus = conditions: within just one hour
norovirus = conditions: over the course of less than one hour

Compound	herpes simplex virus inactivated (herpes simplex virus)	inactivation of norovirus (norovirus)	singlet oxygen quenching strength relative to CoQ10 (versus CoQ10)	singlet oxygen quenching strength relative to green tea catechins (versus green tea catechins)	singlet oxygen quenching strength relative to vitamin C (versus vitamin C)
Cc1ccc(C(C)C)cc1O [carvacrol]	90%	inactivated norovirus	–	–	–
Cc1ccc(C(C)C)c(O)c1 [thymol]	90%	–	–	–	–
CC1=C(/C=C/C(C)=C/C=C/C(C)=C/C=C/C=C(C)/C=C/C=C(C)/C=C/C2=C(C)C(=O)[C@@H](O)CC2(C)C)C(C)(C)C[C@H](O)C1=O [astaxanthin]	–	–	800 times	550 times	6,000 times
